Measured values taken from US10118930B2, “Piperidinylpyrazolopyrimidinones and their use” (BAYER PHARMA AKTIENGESELLSCHAFT, priority 2015, dated 2018).
pIC50: −log10 of the molar value. Counter-ions that a name gives are not always drawn.

The molecules below were run on clot lysis (fibrinolysis) in diluted human citrated plasma, tPA-induced (assay: Plasma-based clot lysis assay (5%)). Details: human citrated platelet-poor plasma 5%, fibrinogen 3 μM, CaCl2 10 mM, tPA 0.2 nM, 37° C., OD at 405 nm.
Format: biochemical
How it was run: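 Compounds added to 5% platelet-poor citrated human plasma with 3 μM fibrinogen in 20 mM HEPES, 150 mM NaCl, 0.01% Brij, pH 7. Clotting and lysis started with 10 mM CaCl2 and 0.2 nM tPA at 37° C. IC50 derived by comparing time courses with a blank control reaction.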

In order of rising pIC50:
1. CCOC(=O)c1c(C(F)(F)F)nn2c(C3CCNCC3)cc(=O)[nH]c12 [Example 458, Ethyl 5-oxo-7-(piperidin-4-yl)-2-(trifluoromethyl)-4,5-dihydropyrazolo[1,5-a]pyrimidine-3-carboxylate hydrochloride]  6.89
2. Cc1cc(F)ccc1NC(=O)c1cnn2c(C3CCNCC3)cc(=O)[nH]c12 [Example 81, N-(4-fluoro-2-methylphenyl)-5-oxo-7-(piperidin-4-yl)-4,5-dihydropyrazolo[1,5-a]pyrimidine-3-carboxamide]  7.09
3. Cc1nn2c(C3CCNCC3)cc(=O)[nH]c2c1C(=O)N(C)C [Example 319, N,N,2-trimethyl-5-oxo-7-(piperidin-4-yl)-4,5-dihydropyrazolo[1,5-a]pyrimidine-3-carboxamide hydrochloride]  7.12
4. CC(C)OC(=O)c1c(C(F)(F)F)nn2c(C3CCNCC3)cc(=O)[nH]c12 [Example 460, Propan-2-yl 5-oxo-7-(piperidin-4-yl)-2-(trifluoromethyl)-4,5-dihydropyrazolo[1,5-a]pyrimidine-3-carboxylate hydrochloride]  7.23
5. C=C(C)c1cnn2c(C3CCNCC3)cc(=O)[nH]c12 [Example 449, 7-(piperidin-4-yl)-3-(prop-1-en-2-yl)pyrazolo[1,5-a]pyrimidin-5 (4H)-one hydrochloride]  7.26
6. CN(CC1CC1)C(=O)c1cnn2c(C3CCNCC3)cc(=O)[nH]c12 [Example 78, N-(cyclopropylmethyl)-N-methyl-5-oxo-7-(piperidin-4-yl)-4,5-dihydropyrazolo[1,5-a]pyrimidine-3-carboxamide]  7.32
7. Cc1nn2c(C3CCNCC3)cc(=O)[nH]c2c1C(=O)N1CCCC(C)(C)C1 [Example 420, 3-[(3,3-dimethyl-piperidin-1-yl)carbonyl]-2-methyl-7-(piperidin-4-yl) pyrazolo[1,5-a] pyrimidin-5(4H)-one hydrochloride]  7.33
8. CN(Cc1cccnc1)C(=O)c1cnn2c(C3CCNCC3)cc(=O)[nH]c12 [Example 318, N-methyl-5-oxo-7-(piperidin-4-yl)-N-(pyridin-3-ylmethyl)-4,5-dihydropyrazolo[1,5-a]pyrimidine-3-carboxamide hydrochloride]  7.35
9. O=C(OCCCF)c1cnn2c(C3CCNCC3)cc(=O)[nH]c12 [Example 352, 3-fluoropropyl 5-oxo-7-(piperidin-4-yl)-4,5-dihydropyrazolo[1,5-a]pyrimidine-3-carboxylate hydrochloride]  7.36
10. O=c1cc(C2CCNCC2)n2ncc(-c3nc(-c4ccc(C(F)(F)F)cc4)no3)c2[nH]1 [Example 113, 7-(Piperidin-4-yl)-3-{3-[4-(trifluoromethyl)phenyl]-1,2,4-oxadiazol-5-yl}pyrazolo[1,5-a]pyrimidin-5(4H)-one hydrochloride]  7.36
11. O=c1cc(C2CCNCC2)n2ncc(-c3nc(-c4ccc(C(F)(F)F)cc4C(F)(F)F)no3)c2[nH]1 [Example 152, 3-{3-[2,4-Bis(trifluoromethyl)phenyl]-1,2,4-oxadiazol-5-yl}-7-(piperidin-4-yl)pyrazolo[1,5-a]pyrimidin-5(4H)-one hydrochloride]  7.37
12. O=c1cc(C2CCNCC2)n2ncc(-c3nc(-c4cccnc4Cl)no3)c2[nH]1 [Example 148, 3-[3-(2-Chloropyridin-3-yl)-1,2,4-oxadiazol-5-yl]-7-(piperidin-4-yl)pyrazolo[1,5-a]pyrimidin-5(4H)-one hydrochloride]  7.37
13. O=c1cc(C2CCNCC2)n2ncc(-c3nc(-c4cccc(Cl)c4Cl)no3)c2[nH]1 [Example 143, 3-[3-(2,3-Dichlorophenyl)-1,2,4-oxadiazol-5-yl]-7-(piperidin-4-yl)pyrazolo[1,5-a]pyrimidin-5 (4H)-one hydrochloride]  7.39
14. COc1cccc(-c2noc(-c3cnn4c(C5CCNCC5)cc(=O)[nH]c34)n2)c1 [Example 125, 3-[3-(3-Methoxyphenyl)-1,2,4-oxadiazol-5-yl]-7-(piperidin-4-yl)pyrazolo[1,5-a]pyrimidin-5 (4H)-one hydrochloride]  7.40
15. O=c1cc(C2CCNCC2)n2ncc(-c3nc(Cc4cccc(C(F)(F)F)c4)no3)c2[nH]1 [Example 222, 7-(piperidin-4-yl)-3-{3-[3-(trifluoromethyl)benzyl]-1,2,4-oxadiazol-5-yl}pyrazolo[1,5-a]pyrimidin-5(4H)-one hydrochloride]  7.43
16. O=C(c1cnn2c(C3CCNCC3)cc(=O)[nH]c12)N1CCCC1 [Example 322, 7-(piperidin-4-yl)-3-(pyrrolidin-1-ylcarbonyl)pyrazolo[1,5-a]pyrimidin-5(4H)-one hydrochloride]  7.44
17. COc1ccccc1-c1nc(-c2cnn3c(C4CCNCC4)cc(=O)[nH]c23)no1 [Example 219, 3-[5-(2-methoxyphenyl)-1,2,4-oxadiazol-3-yl]-7-(piperidin-4-yl)pyrazolo[1,5-a]pyrimidin-5(4H)-one hydrochloride]  7.46
18. O=c1cc(C2CCNCC2)n2ncc(-c3nc(-c4cccc(Cl)c4F)no3)c2[nH]1 [Example 132, 3-[3-(3-Chloro-2-fluorophenyl)-1,2,4-oxadiazol-5-yl]-7-(piperidin-4-yl)pyrazolo[1,5-a]pyrimidin-5(4H)-one hydrochloride]  7.46
19. COC[C@@H]1CCCN1C(=O)c1c(C)nn2c(C3CCNCC3)cc(=O)[nH]c12 [Example 398, 3-{[(2S)-2-(methoxymethyl)pyrrolidin-1-yl]carbonyl}-2-methyl-7-(piperidin-4-yl) pyrazolo[1,5-a] pyrimidin-5(4H)-one hydrochloride]  7.47
20. Cc1ccc(Cc2noc(-c3cnn4c(C5CCNCC5)cc(=O)[nH]c34)n2)cc1 [Example 214, 3-[3-(4-methylbenzyl)-1,2,4-oxadiazol-5-yl]-7-(piperidin-4-yl)pyrazolo[1,5-a]pyrimidin-5(4H)-one hydrochloride]  7.49
21. O=c1cc(C2CCNCC2)n2ncc(-c3nc(-c4cc(Cl)ccc4F)no3)c2[nH]1 [Example 137, 3-[3-(5-Chloro-2-fluorophenyl)-1,2,4-oxadiazol-5-yl]-7-(piperidin-4-yl)pyrazolo[1,5-a]pyrimidin-5(4H)-one hydrochloride]  7.51
22. O=c1cc(C2CCNCC2)n2ncc(-c3noc(C4CCCO4)n3)c2[nH]1 (racemic) [Example 389, Rac-7-(piperidin-4-yl)-3-(5-(tetrahydrofuran-2-yl)-1,2,4-oxadiazol-3-yl)pyrazolo[1,5-a]pyrimidin-5(4H)-one hydrochloride]  7.52
23. O=c1cc(C2CCNCC2)n2ncc(-c3nnc(-c4ccc(Cl)cc4)o3)c2[nH]1 [Example 181, 3-[5-(4-chlorophenyl)-1,3,4-oxadiazol-2-yl]-7-(piperidin-4-yl)pyrazolo[1,5-a]pyrimidin-5(4H)-one hydrochloride]  7.55
24. O=c1cc(C2CCNCC2)n2ncc(-c3nnc(-c4cccs4)o3)c2[nH]1 [Example 288, 7-(piperidin-4-yl)-3-[5-(thiophen-2-yl)-1,3,4-oxadiazol-2-yl]pyrazolo[1,5-a]pyrimidin-5 (4H)-one hydrochloride]  7.57
25. Cc1nn2c(C3CCNCC3)cc(=O)[nH]c2c1C(=O)NC1CCC1 [Example 422, N-cyclobutyl-2-methyl-5-oxo-7-(piperidin-4-yl)-4,5-dihydro-pyrazolo[1,5-a] pyrimidine-3-carboxamide hydrochloride]  7.64
26. Cc1ccc(-c2csc(-c3cnn4c(C5CCNCC5)cc(=O)[nH]c34)n2)c(C)c1 [Example 312, 3-[4-(2,4-dimethylphenyl)-1,3-thiazol-2-yl]-7-(piperidin-4-yl)pyrazolo[1,5-a]pyrimidin-5(4H)-one hydrochloride]  7.66
27. CCC(c1ccc(OC)cc1)c1nc(-c2cnn3c(C4CCNCC4)cc(=O)[nH]c23)no1 (racemic) [Example 241, 3-{5-[rac-1-(4-methoxyphenyl)propyl]-1,2,4-oxadiazol-3-yl}-7-(piperidin-4-yl)pyrazolo[1,5-a]pyrimidin-5(4H)-one hydrochloride]  7.68
28. CC(C)(C)C[C@@H]1C[C@H](c2cc(=O)[nH]c3c(-c4nc(-c5ccccc5F)no4)cnn23)CCN1 [Example 349, 7-[(2S,4R)-2-(2,2-dimethylpropyl)piperidin-4-yl]-3-[3-(2-fluorophenyl)-1,2,4-oxadiazol-5-yl]pyrazolo[1,5-a]pyrimidin-5(4H)-one hydrochloride]  7.68
29. O=c1cc(C2CCNCC2)n2ncc(-c3nc(C4CC4)cs3)c2[nH]1 [Example 311, 3-(4-cyclopropyl-1,3-thiazol-2-yl)-7-(piperidin-4-yl)pyrazolo[1,5-a]pyrimidin-5(4H)-one hydrochloride]  7.74
30. CC(C)(c1ccc(F)cc1)c1noc(-c2cnn3c(C4CCNCC4)cc(=O)[nH]c23)n1 [Example 255, 3-{3-[2-(4-fluorophenyl)propan-2-yl]-1,2,4-oxadiazol-5-yl}-7-(piperidin-4-yl)pyrazolo[1,5-a]pyrimidin-5(4H)-one hydrochloride]  7.77
31. N#Cc1ccccc1-c1cnn2c(C3CCNCC3)cc(=O)[nH]c12 [Example 49, 2-[5-Oxo-7-(piperidin-4-yl)-4,5-dihydropyrazolo[1,5-a]pyrimidin-3-yl]benzonitrile trifluoroacetate]  7.80
32. C[C@H]1C[C@H](c2cc(=O)[nH]c3c(Cl)cnn23)CCN1 [Example 40, (−)-trans-3-Chloro-7-(2-methylpiperidin-4-yl)pyrazolo[1,5-a]pyrimidin-5(4H)-one hydrochloride]  7.85

Same assay, conditions: human citrated platelet-poor plasma 5%, fibrinogen 3 μM, CaCl2 10 mM, tPA 0.2 nM, 37° C., OD at 405 nm; acetate

For `Cc1ccccc1-c1csc(-c2cnn3c(C4CCNCC4)cc(=O)[nH]c23)n1` [Example 448, 3-[4-(2-methylphenyl)-1,3-thiazol-2-yl]-7-(piperidin-4-yl)pyrazolo[1,5-a]pyrimidin-5(4H)-one acetate], the pIC50 was 7.52.
